# Measurements from patent US10961231B2, “NTCP inhibitors” (National Institute of Biological Sciences, Beijing, priority 2018, dated 2021).
# Target: T1, NTCP (Homo sapiens, UniProt Q14973)
# T1 sequence (Q14973 1-349): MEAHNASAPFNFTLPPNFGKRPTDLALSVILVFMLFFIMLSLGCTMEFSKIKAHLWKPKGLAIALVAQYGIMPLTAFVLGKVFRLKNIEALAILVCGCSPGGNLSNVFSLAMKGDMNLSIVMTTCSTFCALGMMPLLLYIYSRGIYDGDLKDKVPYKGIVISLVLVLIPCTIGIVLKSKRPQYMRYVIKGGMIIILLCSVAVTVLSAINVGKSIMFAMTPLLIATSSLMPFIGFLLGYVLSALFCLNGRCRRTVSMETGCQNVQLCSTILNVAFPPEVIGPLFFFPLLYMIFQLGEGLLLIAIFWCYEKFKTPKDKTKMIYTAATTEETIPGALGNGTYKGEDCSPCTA
# Test: [3H]-TCA uptake assay (NTCP inhibition)
# Type: cell-based
# Conditions: IC50, given as a range, marked * (asterisk not explained)
# Procedure, shortened: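 Read-out is liquid scintillation counting of Triton X-100 lysates after 15 min, 37° C uptake of 1 μM [3H]-taurocholate in Na+ Ringer's buffer (145 mM Na). Beforehand, PTH and HepG2-NTCP cells had 24 h in PMM for NTCP induction and 2 h of compound or DMSO treatment.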
row,SMILES,IC50 [nM]
1,CCC1NC(=O)C(C2OC(Sc3cc(Cl)cc(OCc4ccccc4)c3)CC2C)N(C)C(=O)C(C(C)C)N(C)C(=O)C(CC(C)C)N(C)C(=O)C(CC(C)C)N(C)C(=O)C(C)NC(=O)C(C)NC(=O)C(CC(C)C)N(C)C(=O)C(C(C)C)NC(=O)C(CC(C)C)N(C)C(=O)CN(C)C1=O (centres unmarked) [Compound 63],1000 to 100000
2,CCC1NC(=O)C(C2OC(Oc3cc(Cl)cc(OCC4CCOCC4)c3)CC2C)N(C)C(=O)C(C(C)C)N(C)C(=O)C(CC(C)C)N(C)C(=O)C(CC(C)C)N(C)C(=O)C(C)NC(=O)C(C)NC(=O)C(CC(C)C)N(C)C(=O)C(C(C)C)NC(=O)C(CC(C)C)N(C)C(=O)CN(C)C1=O (centres unmarked) [Compound 67-o],1000 to 100000
3,CCC1NC(=O)C(C2OC(Sc3cc(Cl)cc(OCC4CCOCC4)c3)CC2C)N(C)C(=O)C(C(C)C)N(C)C(=O)C(CC(C)C)N(C)C(=O)C(CC(C)C)N(C)C(=O)C(C)NC(=O)C(C)NC(=O)C(CC(C)C)N(C)C(=O)C(C(C)C)NC(=O)C(CC(C)C)N(C)C(=O)CN(C)C1=O (centres unmarked) [Compound 67],1000 to 100000
4,CCC1NC(=O)C(C2OC(Oc3cccc(N(C)Cc4ccccc4)c3)CC2C)N(C)C(=O)C(C(C)C)N(C)C(=O)C(CC(C)C)N(C)C(=O)C(CC(C)C)N(C)C(=O)C(C)NC(=O)C(C)NC(=O)C(CC(C)C)N(C)C(=O)C(C(C)C)NC(=O)C(CC(C)C)N(C)C(=O)CN(C)C1=O (centres unmarked) [Compound 68-o],1000 to 100000
5,CCC1NC(=O)C(C2OC(Sc3cccc(N(C)Cc4ccccc4)c3)CC2C)N(C)C(=O)C(C(C)C)N(C)C(=O)C(CC(C)C)N(C)C(=O)C(CC(C)C)N(C)C(=O)C(C)NC(=O)C(C)NC(=O)C(CC(C)C)N(C)C(=O)C(C(C)C)NC(=O)C(CC(C)C)N(C)C(=O)CN(C)C1=O (centres unmarked) [Compound 68],1000 to 100000
6,CCC1NC(=O)C(C2OC(Oc3cccc(OCc4cccs4)c3)CC2C)N(C)C(=O)C(C(C)C)N(C)C(=O)C(CC(C)C)N(C)C(=O)C(CC(C)C)N(C)C(=O)C(C)NC(=O)C(C)NC(=O)C(CC(C)C)N(C)C(=O)C(C(C)C)NC(=O)C(CC(C)C)N(C)C(=O)CN(C)C1=O (centres unmarked) [Compound 69-o],1000 to 100000
7,CCC1NC(=O)C(C2OC(Sc3cccc(OCc4cccs4)c3)CC2C)N(C)C(=O)C(C(C)C)N(C)C(=O)C(CC(C)C)N(C)C(=O)C(CC(C)C)N(C)C(=O)C(C)NC(=O)C(C)NC(=O)C(CC(C)C)N(C)C(=O)C(C(C)C)NC(=O)C(CC(C)C)N(C)C(=O)CN(C)C1=O (centres unmarked) [Compound 69],1000 to 100000
8,CCC1NC(=O)C(C2OC(Oc3cccc(OCC4CCN(C)CC4)c3)CC2C)N(C)C(=O)C(C(C)C)N(C)C(=O)C(CC(C)C)N(C)C(=O)C(CC(C)C)N(C)C(=O)C(C)NC(=O)C(C)NC(=O)C(CC(C)C)N(C)C(=O)C(C(C)C)NC(=O)C(CC(C)C)N(C)C(=O)CN(C)C1=O (centres unmarked) [Compound 72-o],1000 to 100000
9,CCC1NC(=O)C(C2OC(Sc3cccc(OCC4CCN(C)CC4)c3)CC2C)N(C)C(=O)C(C(C)C)N(C)C(=O)C(CC(C)C)N(C)C(=O)C(CC(C)C)N(C)C(=O)C(C)NC(=O)C(C)NC(=O)C(CC(C)C)N(C)C(=O)C(C(C)C)NC(=O)C(CC(C)C)N(C)C(=O)CN(C)C1=O (centres unmarked) [Compound 72],1000 to 100000
10,CCC1NC(=O)C(C2OC(SCc3ccccc3)CC2C)N(C)C(=O)C(C(C)C)N(C)C(=O)C(CC(C)C)N(C)C(=O)C(CC(C)C)N(C)C(=O)C(C)NC(=O)C(C)NC(=O)C(CC(C)C)N(C)C(=O)C(C(C)C)NC(=O)C(CC(C)C)N(C)C(=O)CN(C)C1=O (centres unmarked) [Compound 74A-s],1000 to 100000
11,CCC1NC(=O)C(C2OC(SCc3cccc(S(=O)(=O)OCC(C)C)c3)CC2C)N(C)C(=O)C(C(C)C)N(C)C(=O)C(CC(C)C)N(C)C(=O)C(CC(C)C)N(C)C(=O)C(C)NC(=O)C(C)NC(=O)C(CC(C)C)N(C)C(=O)C(C(C)C)NC(=O)C(CC(C)C)N(C)C(=O)CN(C)C1=O (centres unmarked) [Compound 75A-s],1000 to 100000

# Same assay, conditions: IC50, given as a range; assay not given
row,SMILES,IC50 [nM]
1,"CCC1NC(=O)C(C2OC(OCc3cccc(S(=O)(=O)NCC(C)C)c3)CC2C)N(C)C(=O)C(C(C)C)N(C)C(=O)C(CC(C)C)N(C)C(=O)C(CC(C)C)N(C)C(=O)C(C)NC(=O)C(C)NC(=O)C(CC(C)C)N(C)C(=O)C(C(C)C)NC(=O)C(CC(C)C)N(C)C(=O)CN(C)C1=O [Compound 76A, [2-((2R,3R)-5-(3-(N-isobutylsulfamoyl)benzyloxy)-3-methyltetrahydrofuran-2-yl)-2-(methylamino)acetic acid]^1-cyclosporin A]",1000 to 10000

# Same assay, conditions: given as a range, marked * (asterisk not explained)
row,SMILES,IC50 [nM]
1,CCC1NC(=O)C(C2OC(Oc3ccc(OC)c(OCc4ccccc4)c3)CC2C)N(C)C(=O)C(C(C)C)N(C)C(=O)C(CC(C)C)N(C)C(=O)C(CC(C)C)N(C)C(=O)C(C)NC(=O)C(C)NC(=O)C(CC(C)C)N(C)C(=O)C(C(C)C)NC(=O)C(CC(C)C)N(C)C(=O)CN(C)C1=O (centres unmarked) [Compound 64-o],1000 to 100000
2,CCC1NC(=O)C(C2OC(Sc3ccc(OC)c(OCc4ccccc4)c3)CC2C)N(C)C(=O)C(C(C)C)N(C)C(=O)C(CC(C)C)N(C)C(=O)C(CC(C)C)N(C)C(=O)C(C)NC(=O)C(C)NC(=O)C(CC(C)C)N(C)C(=O)C(C(C)C)NC(=O)C(CC(C)C)N(C)C(=O)CN(C)C1=O (centres unmarked) [Compound 64],1000 to 100000
3,CCC1NC(=O)C(C2OC(Oc3cc(OC)cc(OCc4ccccc4)c3)CC2C)N(C)C(=O)C(C(C)C)N(C)C(=O)C(CC(C)C)N(C)C(=O)C(CC(C)C)N(C)C(=O)C(C)NC(=O)C(C)NC(=O)C(CC(C)C)N(C)C(=O)C(C(C)C)NC(=O)C(CC(C)C)N(C)C(=O)CN(C)C1=O (centres unmarked) [Compound 65-o],1000 to 100000
4,CCC1NC(=O)C(C2OC(Sc3cc(OC)cc(OCc4ccccc4)c3)CC2C)N(C)C(=O)C(C(C)C)N(C)C(=O)C(CC(C)C)N(C)C(=O)C(CC(C)C)N(C)C(=O)C(C)NC(=O)C(C)NC(=O)C(CC(C)C)N(C)C(=O)C(C(C)C)NC(=O)C(CC(C)C)N(C)C(=O)CN(C)C1=O (centres unmarked) [Compound 65],1000 to 100000
5,CCC1NC(=O)C(C2OC(Oc3cc(OC)cc(OCC4CCOCC4)c3)CC2C)N(C)C(=O)C(C(C)C)N(C)C(=O)C(CC(C)C)N(C)C(=O)C(CC(C)C)N(C)C(=O)C(C)NC(=O)C(C)NC(=O)C(CC(C)C)N(C)C(=O)C(C(C)C)NC(=O)C(CC(C)C)N(C)C(=O)CN(C)C1=O (centres unmarked) [Compound 66-o],1000 to 100000
6,CCC1NC(=O)C(C2OC(Sc3cc(OC)cc(OCC4CCOCC4)c3)CC2C)N(C)C(=O)C(C(C)C)N(C)C(=O)C(CC(C)C)N(C)C(=O)C(CC(C)C)N(C)C(=O)C(C)NC(=O)C(C)NC(=O)C(CC(C)C)N(C)C(=O)C(C(C)C)NC(=O)C(CC(C)C)N(C)C(=O)CN(C)C1=O (centres unmarked) [Compound 66],1000 to 100000
7,CCC1NC(=O)C(C2OC(Oc3cc(OC)cc(OCC4CCN(C)CC4)c3)CC2C)N(C)C(=O)C(C(C)C)N(C)C(=O)C(CC(C)C)N(C)C(=O)C(CC(C)C)N(C)C(=O)C(C)NC(=O)C(C)NC(=O)C(CC(C)C)N(C)C(=O)C(C(C)C)NC(=O)C(CC(C)C)N(C)C(=O)CN(C)C1=O (centres unmarked) [Compound 70-o],1000 to 100000
8,CCC1NC(=O)C(C2OC(Sc3cc(OC)cc(OCC4CCN(C)CC4)c3)CC2C)N(C)C(=O)C(C(C)C)N(C)C(=O)C(CC(C)C)N(C)C(=O)C(CC(C)C)N(C)C(=O)C(C)NC(=O)C(C)NC(=O)C(CC(C)C)N(C)C(=O)C(C(C)C)NC(=O)C(CC(C)C)N(C)C(=O)CN(C)C1=O (centres unmarked) [Compound 70],1000 to 100000
9,CCC1NC(=O)C(C2OC(Oc3cc(Cl)cc(OCC4CCN(C)CC4)c3)CC2C)N(C)C(=O)C(C(C)C)N(C)C(=O)C(CC(C)C)N(C)C(=O)C(CC(C)C)N(C)C(=O)C(C)NC(=O)C(C)NC(=O)C(CC(C)C)N(C)C(=O)C(C(C)C)NC(=O)C(CC(C)C)N(C)C(=O)CN(C)C1=O (centres unmarked) [Compound 71-o],1000 to 100000
10,CCC1NC(=O)C(C2OC(Sc3cc(Cl)cc(OCC4CCN(C)CC4)c3)CC2C)N(C)C(=O)C(C(C)C)N(C)C(=O)C(CC(C)C)N(C)C(=O)C(CC(C)C)N(C)C(=O)C(C)NC(=O)C(C)NC(=O)C(CC(C)C)N(C)C(=O)C(C(C)C)NC(=O)C(CC(C)C)N(C)C(=O)CN(C)C1=O (centres unmarked) [Compound 71],1000 to 100000
11,CCC1NC(=O)C(C2OC(Oc3cc(OCCOC)cc(OCCOC)c3)CC2C)N(C)C(=O)C(C(C)C)N(C)C(=O)C(CC(C)C)N(C)C(=O)C(CC(C)C)N(C)C(=O)C(C)NC(=O)C(C)NC(=O)C(CC(C)C)N(C)C(=O)C(C(C)C)NC(=O)C(CC(C)C)N(C)C(=O)CN(C)C1=O (centres unmarked) [Compound 73-o],1000 to 100000
12,CCC1NC(=O)C(C2OC(Sc3cc(OCCOC)cc(OCCOC)c3)CC2C)N(C)C(=O)C(C(C)C)N(C)C(=O)C(CC(C)C)N(C)C(=O)C(CC(C)C)N(C)C(=O)C(C)NC(=O)C(C)NC(=O)C(CC(C)C)N(C)C(=O)C(C(C)C)NC(=O)C(CC(C)C)N(C)C(=O)CN(C)C1=O (centres unmarked) [Compound 73],1000 to 100000

# Same assay, conditions: given as a range; assay not given
row,SMILES,IC50 [nM]
1,"CCC1NC(=O)C(C2OC(OCc3ccccc3)CC2C)N(C)C(=O)C(C(C)C)N(C)C(=O)C(CC(C)C)N(C)C(=O)C(CC(C)C)N(C)C(=O)C(C)NC(=O)C(C)NC(=O)C(CC(C)C)N(C)C(=O)C(C(C)C)NC(=O)C(CC(C)C)N(C)C(=O)CN(C)C1=O [Compound 74A, [2-((2R,3R)-5-(benzyloxy)-3-methyltetrahydrofuran-2-yl)-2-(methylamino)acetic acid]^1-cyclosporin A]",1 to 1000
2,"CCC1NC(=O)C(C2OC(OCc3cccc(S(=O)(=O)OCC(C)C)c3)CC2C)N(C)C(=O)C(C(C)C)N(C)C(=O)C(CC(C)C)N(C)C(=O)C(CC(C)C)N(C)C(=O)C(C)NC(=O)C(C)NC(=O)C(CC(C)C)N(C)C(=O)C(C(C)C)NC(=O)C(CC(C)C)N(C)C(=O)CN(C)C1=O [Compound 75A, [2-((2R,3R)-5-(3-(isobutoxysulfonyl)benzyloxy)-3-methyltetrahydrofuran-2-yl)-2-(methylamino)acetic acid]^1-cyclosporin A]",1 to 1000
